Laboratory results: patent US20190275040A1, “COMPOUNDS AND METHODS FOR TREATING OR PREVENTING ALZHEIMER'S DISEASE” (YALE UNIVERSITY, priority 2016, published 2019)

Assays:
[1] = biological target: T1, FAK (Homo sapiens, UniProt Q05397); details: cited from earlier work
[2] = biological target: Pyk2 (Homo sapiens, UniProt Q14289); assay: Pyk2 Ki of kinase inhibitors (CHEMBL & IUPHR-BPS database screen, Table 2); assay type: biochemical; details: Pyk2 versus Fyn
[3] = biological target: T1, FAK; assay: FAK Ki and selectivity versus Pyk2; assay type: biochemical
[4] = Brain and plasma levels after peripheral dosing (LC/MS/MS); assay type: in vivo, mouse
Experimental: (§1) In brain slices and in dissociated primary neuronal cultures, Aβo causes Fyn activation, Pyk2 activation, altered Glu-induced calcium signaling, dendritic spine loss and suppression of LTP. […] After developing LC/MS/MS methods to detect PF-719, the extent to which the Pyk2 inhibitor enters brain from peripheral dosing was determined. […] Continuous 25 mg/kg/d minipump i.p. infusion was chosen for treatment of APP/PS1 mice.

[5] = tested on: Aβo-induced suppression of LTP in hippocampal slices; assay: Hippocampal CA3-CA1 LTP in acute brain slices with or without Aβo; assay type: cell-based, mouse; details: WT slices
Experimental: FIG. 3A depicts WT slices that were treated with either vehicle or Aβo 30 min prior to theta burst stimulation (TBS). The slope of the field excitatory postsynaptic potential (fEPSP) is plotted as a function of time. Data are graphed as mean±SEM (n=6-12). Inset, representative traces immediately before TBS and 60 min post-TBS (red) are superimposed. FIG. 3B depicts WT and Pyk2−/− brain slices in the absence of Aβo, plotted as in FIG. 3A. FIG. 3C depicts average fEPSPs at 50-60 min post-TBS plotted for the indicated conditions as mean±SEM (n=3-20). Where indicated, 500 nM PF719 kinase inhibitor was pre-incubated with WT slices for 60 min prior to addition of Aβo or vehicle for 30 min, and then TBS. One-way ANOVA, **, p<0.01.
The role of Pyk2 in Aβo-induced disruption of synaptic plasticity using hippocampal CA3 to CA1 LTP has also been evaluated, comparing WT and Pyk2−/− slices. […]
400-μm coronal slices were prepared as described elsewhere herein and submerged in a recording chamber (BSC-PC, Warner Instruments) containing aCSF with 2.4 mM CaCl2 that was continuously oxygenated (95% O2, 5% CO2). […] Extracellular field excitatory post-synaptic potentials (fEPSPs) were recorded using a glass microelectrode (2-6 MS2) (4878, World Precision Instruments) filled with aCSF, and placed in the Stratum radiatum of CA1 neurons. […]

[6] = tested on: Pyk2 activation (p-Pyk2); assay: Pyk2 activation and Aβo-induced signaling in cells; assay type: cell-based; details: 500 nM
Experimental: as §1

T1 sequence (Q05397 whole entry, species assumed): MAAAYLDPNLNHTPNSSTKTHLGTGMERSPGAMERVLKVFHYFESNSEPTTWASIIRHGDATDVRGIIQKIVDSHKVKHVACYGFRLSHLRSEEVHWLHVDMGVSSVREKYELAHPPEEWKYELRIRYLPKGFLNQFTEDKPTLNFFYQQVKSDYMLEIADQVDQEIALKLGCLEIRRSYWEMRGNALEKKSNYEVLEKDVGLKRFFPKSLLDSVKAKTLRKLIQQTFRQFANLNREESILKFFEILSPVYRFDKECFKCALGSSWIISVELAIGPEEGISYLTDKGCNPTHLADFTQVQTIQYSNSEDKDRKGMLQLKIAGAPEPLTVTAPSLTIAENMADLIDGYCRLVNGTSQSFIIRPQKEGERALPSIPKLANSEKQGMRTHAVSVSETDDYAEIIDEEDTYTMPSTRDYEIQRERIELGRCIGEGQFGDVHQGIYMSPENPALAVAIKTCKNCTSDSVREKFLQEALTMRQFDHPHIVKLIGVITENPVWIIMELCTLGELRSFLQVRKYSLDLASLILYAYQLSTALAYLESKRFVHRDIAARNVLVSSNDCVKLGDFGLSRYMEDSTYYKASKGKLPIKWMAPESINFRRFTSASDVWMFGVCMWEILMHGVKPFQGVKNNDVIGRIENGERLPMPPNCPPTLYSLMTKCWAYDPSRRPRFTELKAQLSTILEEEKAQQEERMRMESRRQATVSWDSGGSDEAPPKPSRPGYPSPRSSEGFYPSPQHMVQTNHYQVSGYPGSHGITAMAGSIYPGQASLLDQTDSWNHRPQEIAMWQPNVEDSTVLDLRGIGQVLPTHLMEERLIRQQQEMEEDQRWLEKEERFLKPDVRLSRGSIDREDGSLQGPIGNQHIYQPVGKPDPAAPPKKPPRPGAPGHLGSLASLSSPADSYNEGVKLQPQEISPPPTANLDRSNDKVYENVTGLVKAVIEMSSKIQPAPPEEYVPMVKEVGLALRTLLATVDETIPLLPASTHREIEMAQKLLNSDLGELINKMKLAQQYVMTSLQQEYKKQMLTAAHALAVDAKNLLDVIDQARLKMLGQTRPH
Sequence of Pyk2 (Q14289 whole entry, species assumed): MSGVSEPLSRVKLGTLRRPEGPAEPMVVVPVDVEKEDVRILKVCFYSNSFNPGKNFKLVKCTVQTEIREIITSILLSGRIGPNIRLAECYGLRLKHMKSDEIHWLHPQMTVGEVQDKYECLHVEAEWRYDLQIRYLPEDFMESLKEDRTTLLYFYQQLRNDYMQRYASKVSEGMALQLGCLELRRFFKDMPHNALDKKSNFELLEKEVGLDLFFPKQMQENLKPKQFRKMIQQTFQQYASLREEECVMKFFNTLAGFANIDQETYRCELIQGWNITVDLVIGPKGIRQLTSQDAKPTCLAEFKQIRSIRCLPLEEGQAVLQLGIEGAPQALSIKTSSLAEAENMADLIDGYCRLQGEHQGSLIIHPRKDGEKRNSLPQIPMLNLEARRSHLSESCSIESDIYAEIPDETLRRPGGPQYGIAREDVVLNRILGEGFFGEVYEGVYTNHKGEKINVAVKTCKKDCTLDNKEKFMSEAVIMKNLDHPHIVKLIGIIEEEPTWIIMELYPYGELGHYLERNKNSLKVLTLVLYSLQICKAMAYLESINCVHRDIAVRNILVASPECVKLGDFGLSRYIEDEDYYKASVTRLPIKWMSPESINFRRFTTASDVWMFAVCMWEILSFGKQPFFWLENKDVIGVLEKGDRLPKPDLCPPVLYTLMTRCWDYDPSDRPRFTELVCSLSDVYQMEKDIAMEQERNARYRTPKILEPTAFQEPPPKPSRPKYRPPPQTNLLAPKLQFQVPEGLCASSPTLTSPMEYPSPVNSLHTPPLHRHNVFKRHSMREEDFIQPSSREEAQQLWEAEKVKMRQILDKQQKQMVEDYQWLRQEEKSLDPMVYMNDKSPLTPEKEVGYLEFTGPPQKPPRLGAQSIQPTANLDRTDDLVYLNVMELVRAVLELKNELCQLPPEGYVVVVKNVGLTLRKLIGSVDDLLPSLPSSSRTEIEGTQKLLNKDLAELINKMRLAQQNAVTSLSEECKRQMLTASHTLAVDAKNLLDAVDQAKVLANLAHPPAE

SMILES: CCOc1ccc2nc(SCc3nc(N)nc(N4CCOCC4)n3)sc2c1 [PF-719, 4-(((6-ethoxybenzo[d]thiazol-2-yl)thio)methyl)-6-morpholino-1,3,5-triazin-2-amine]
- Ki [1]: 0.45 µM
- Inhibition Character [2]: Pyk2 selective
- selectivity Pyk2 versus FAK [3]: 30 ×
- brain level above the Ki ([4]; 5 mg/kg, 90 min): 30 fold
- Kp at 90 min ([4]; mouse, brain and plasma, other: i.p. or p.o., single dose 5 mg/kg i.p. or p.o., 90 min, read-out: brain level as share of plasma level): ~0.3
- concentration at 90 min ([4]; mouse, brain, other: i.p. or p.o., single peripheral dose of 5 mg/kg i.p. or p.o., at 90 min): 450 ± 110 nM
- half-life ([4]; mouse, in vivo, other: i.p. or p.o., single dose 5 mg/kg i.p. or p.o.): 6 h
- Oral bioavailability ([4]; p.o. compared with i.p.): equal
- Aβo-induced suppression of LTP ([5]; 500 nM, Aβo 30 min before TBS): protects these slices from Aβo-induced suppression
- LTP without Aβo ([5]; nM concentrations (500 nM, 60 min pre-incubation)): does not block LTP
- baseline Pyk2 activation and Aβo-induced signaling in cells [6]: blocked baseline Pyk2 activation and Aβo-induced signaling
